From the supplement of paper PMC10331698
± gives the standard deviation of the averaged measurements.

What was measured:
Test in all cases: level (log10 ratio to DMSO vehicle control); higher = higher biomarker level / cell amount than vehicle control
Methotrexate = compound: CN(Cc1cnc2nc(N)nc(N)c2n1)c1ccc(C(=O)N[C@@H](CCC(=O)O)C(=O)O)cc1 [Methotrexate]; details: in DMSO
Experimental: (§1)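 BioMAP Diversity Plus panel of 12 human primary cell co-culture systems (3C, 4H, LPS, SAg, BT, BF4T, BE3C, CASM3C, HDF3CGF, KF3CT, MyoF, Mphg). Compounds were added 1 h before stimulation and left for 24 h (MyoF 48 h; BT 72 h for soluble read-outs or 6 d for IgG). Biomarkers were read by ELISA, cytotoxicity by SRB, PBMC viability and proliferation by Alamar Blue. Each well value was divided by the mean of 8 DMSO control wells on the same plate and log10 transformed; duplicate blinded samples were tested at 4 concentrations.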

[1] = compound: FC(F)(F)COC(OCC(F)(F)F)OCC(F)(F)F [tris(Trifluoroethoxy)methane]; details: in DMSO
Experimental: as §1

Tetrafluorosuccinic acid = compound: O=C(O)C(F)(F)C(F)(F)C(=O)O [Tetrafluorosuccinic acid]; details: in DMSO
Experimental: as §1

Perfluorooctanoic acid = compound: O=C(O)C(F)(F)C(F)(F)C(F)(F)C(F)(F)C(F)(F)C(F)(F)C(F)(F)F [Perfluorooctanoic acid]; details: in DMSO
Experimental: as §1

[2] = compound: OCC(F)(F)C(F)(F)C(F)(F)C(F)(F)C(F)(F)C(F)(F)C(F)(F)C(F)(F)CO [1H,1H,10H,10H-Perfluorodecane-1,10-diol]; details: in DMSO
Experimental: as §1

[3] = compound: OCCC(F)(F)C(F)(F)C(F)(F)C(F)(F)C(F)(F)C(F)(F)C(F)(F)C(F)(F)F [8:2 Fluorotelomer alcohol]; details: 6700 nM; in DMSO
Experimental: as §1

[4] = compound: OCCCCC(F)(F)C(F)(F)C(F)(F)C(F)(F)F [4:4 Fluorotelomer alcohol]; details: in DMSO
Experimental: as §1

Test System | level (log10) (Methotrexate; 1500 nM) | level (log10) (Methotrexate; 4400 nM) | level (log10) (Methotrexate; 13000 nM) | level (log10) (Methotrexate; 40000 nM) | level (log10) ([1]; 6700 nM) | level (log10) ([1]; 20000 nM) | level (log10) ([1]; 60000 nM) | level (log10) (Tetrafluorosuccinic acid; 6700 nM) | level (log10) (Tetrafluorosuccinic acid; 20000 nM) | level (log10) (Tetrafluorosuccinic acid; 60000 nM) | level (log10) (Perfluorooctanoic acid; 6700 nM) | level (log10) (Perfluorooctanoic acid; 20000 nM) | level (log10) (Perfluorooctanoic acid; 60000 nM) | level (log10) ([2]; 6700 nM) | level (log10) ([2]; 20000 nM) | level (log10) ([2]; 60000 nM) | level (log10) [3] | level (log10) ([4]; 6700 nM) | level (log10) ([4]; 20000 nM) | level (log10) ([4]; 60000 nM)
CASM3C:CXCL8/IL-8 | 0.0365 ± 0.057 | 0.0255 ± 0.06 | 0.034 ± 0.05 | 0.063 ± 0.061 | -0.008 ± 0.0042 | -0.01 ± 0.016 | 0.0055 ± 0.03 | -0.001 ± 0.0042 | -0.0145 ± 0.018 | -0.002 ± 0.016 | 0.014 ± 0.0085 | 0.009 ± 0.0042 | 0.052 ± 0.014 | -0.0275 ± 0.028 | -0.048 ± 0.0099 | -0.011 | -0.006 ± 0.011 | 0.0125 ± 0.0035 | 0.0095 ± 0.032 | 0.026 ± 0.045
lMphg:M-CSF | -0.03 ± 0.034 | -0.013 ± 0.025 | -0.0295 ± 0.026 | -0.013 ± 0.085 | -0.012 ± 0.0071 | -0.025 ± 0.035 | -0.0135 ± 0.029 | -0.005 ± 0.018 | -0.0105 ± 0.0092 | 0.019 ± 0.03 | -0.007 ± 0.0042 | 0.0105 ± 0.019 | 0.0185 ± 0.029 | -0.0155 ± 0.005 | -0.031 | -0.097 | -0.0345 ± 0.021 | -0.0185 ± 0.019 | -0.0095 ± 0.0035 | 0.0105 ± 0.042
BE3C:SRB | -0.0035 ± 0.0064 | -0.009 ± 0.0014 | -0.0025 ± 0.00071 | 0.001 ± 0.014 | -0.002 ± 0.0028 | 0.005 ± 0.0057 | -0.002 ± 0.0085 | -0.0045 ± 0.005 | -0.0045 ± 0.0064 | -0.001 ± 0.0028 | -0.0065 ± 0.00071 | -0.0025 ± 0.0021 | -0.014 ± 0.0099 | -0.003 | -0.0105 ± 0.00071 | -0.024 | -0.0075 ± 0.0021 | -0.0065 ± 0.0035 | -0.0035 ± 0.005 | 0.0015 ± 0.016
CASM3C:Proliferation | -0.011 ± 0.096 | 0.0805 ± 0.025 | 0.0585 ± 0.0021 | 0.041 ± 0.014 | -0.033 ± 0.021 | -0.042 ± 0.0014 | 0.021 ± 0.027 | 0.001 ± 0.0057 | -0.053 ± 0.016 | -0.0085 ± 0.06 | -0.023 ± 0.051 | -0.0165 ± 0.032 | 0.0105 ± 0.0064 | -0.011 ± 0.021 | -0.0215 ± 0.00071 | -0.324 | 0.003 ± 0.017 | -0.01 ± 0.0099 | -0.0345 ± 0.005 | -0.0075 ± 0.057
lMphg:SRB-Mphg | -0.105 ± 0.073 | -0.0855 ± 0.0021 | -0.105 ± 0.064 | 0.0295 ± 0.025 | -0.026 ± 0.013 | -0.038 ± 0.044 | -0.008 ± 0.027 | -0.0035 ± 0.015 | -0.0075 ± 0.013 | -0.013 ± 0.016 | -0.0085 ± 0.013 | 0.0005 ± 0.005 | -0.002 ± 0.03 | 0.003 ± 0.028 | -0.0625 ± 0.084 | -0.775 | -0.015 ± 0.03 | 0.008 ± 0.016 | -0.009 ± 0.0057 | -0.01 ± 0.0085
lMphg:CD106/VCAM-1 | -0.001 ± 0.025 | -0.016 ± 0.021 | -0.002 ± 0.0057 | -0.007 ± 0.021 | 0.0065 ± 0.0035 | 0.023 ± 0.0099 | -0.0145 ± 0.0092 | -0.017 ± 0.0028 | 0.0085 ± 0.0021 | 0.018 ± 0.03 | 0.0065 ± 0.0078 | 0.0065 ± 0.011 | 0.0025 ± 0.0092 | -0.008 ± 0.0014 | -0.0075 ± 0.029 | -0.802 | 0.0055 ± 0.012 | -0.0195 ± 0.005 | -0.0045 ± 0.019 | -0.0025 ± 0.042
MyoF:PAI-I | -0.026 ± 0.072 | -0.011 ± 0.035 | 0.0015 ± 0.016 | -0.0185 ± 0.084 | -0.0045 ± 0.018 | -0.0035 ± 0.00071 | 0.008 ± 0.0042 | 0.009 ± 0.0057 | 0.01 ± 0.017 | 0.004 ± 0.014 | -0.0225 ± 0.011 | -0.023 ± 0.024 | -0.0305 ± 0.029 | -0.0155 ± 0.005 | -0.008 ± 0.0042 | -0.005 | -0.004 ± 0.018 | 0.0125 ± 0.011 | 0.007 ± 0.011 | 0.0095 ± 0.016
lMphg:CD62E/E-Selectin | -0.009 ± 0.0099 | -0.0265 ± 0.028 | -0.0135 ± 0.019 | -0.011 ± 0.033 | 0.023 ± 0.082 | -0.0245 ± 0.076 | -0.0085 ± 0.076 | -0.0075 ± 0.032 | 0.0085 ± 0.011 | 0.032 ± 0.013 | -0.007 ± 0.025 | 0.013 | 0.052 ± 0.017 | -0.0175 ± 0.005 | -0.102 ± 0.11 | -0.8 | 0.024 ± 0.023 | -0.0275 ± 0.018 | -0.012 ± 0.018 | -0.0195 ± 0.04
HDF3CGF:PAI-I | -0.0705 ± 0.14 | -0.0725 ± 0.079 | -0.0445 ± 0.079 | -0.081 ± 0.16 | -0.0115 ± 0.0021 | -0.025 ± 0.023 | 0.0175 ± 0.018 | -0.0295 ± 0.0078 | -0.009 ± 0.0014 | 0.003 ± 0.037 | 0.02 ± 0.0071 | 0.0425 ± 0.019 | 0.088 ± 0.065 | -0.0005 ± 0.0035 | 0.007 ± 0.0014 | -0.564 | -0.0555 ± 0.0035 | -0.0015 ± 0.012 | 0.0075 ± 0.03 | 0.0075 ± 0.054
CASM3C:M-CSF | 0.0285 ± 0.013 | -0.051 ± 0.027 | -0.0455 ± 0.0021 | -0.0275 ± 0.081 | -0.0565 ± 0.015 | -0.03 ± 0.021 | 0.013 ± 0.037 | -0.008 ± 0.035 | -0.015 ± 0.016 | 0.0095 ± 0.033 | 0.0005 ± 0.012 | -0.004 ± 0.021 | 0.0145 ± 0.022 | -0.052 ± 0.027 | -0.054 ± 0.014 | -0.065 | -0.0135 ± 0.012 | 0.0085 ± 0.011 | -0.005 ± 0.024 | 0.021 ± 0.047
HDF3CGF:M-CSF | -0.051 ± 0.076 | -0.0445 ± 0.077 | -0.033 ± 0.1 | -0.0655 ± 0.17 | -0.0005 ± 0.00071 | -0.0125 ± 0.005 | 0.022 ± 0.037 | -0.0505 ± 0.018 | -0.0735 ± 0.0035 | -0.048 ± 0.0099 | -0.0205 ± 0.04 | 0.013 ± 0.0028 | 0.0235 ± 0.016 | 0.0095 ± 0.035 | 0.001 ± 0.038 | -0.304 | -0.044 ± 0.028 | -0.008 | -0.0015 ± 0.0092 | -0.014 ± 0.0014
MyoF:bFGF | -0.0095 ± 0.015 | -0.0045 ± 0.021 | 0.009 ± 0.0071 | -0.0095 ± 0.0035 | -0.004 ± 0.0042 | -0.0155 ± 0.011 | -0.006 ± 0.0028 | 0.0005 ± 0.0021 | 0.0095 ± 0.0078 | -0.0045 ± 0.029 | -0.023 ± 0.0057 | -0.0275 ± 0.0035 | -0.0085 ± 0.03 | -0.007 ± 0.011 | 0.0005 ± 0.00071 | 0.005 | 0.002 ± 0.018 | 0.0035 ± 0.0035 | -0.009 ± 0.021 | 0.005 ± 0.042
KF3CT:CD54/ICAM-1 | -0.0085 ± 0.012 | -0.011 ± 0.0014 | 0.006 ± 0.0071 | 0.007 ± 0.0042 | -0.015 | -0.021 ± 0.0014 | -0.006 ± 0.023 | 0.011 ± 0.0085 | 0.003 | 0.025 ± 0.0042 | -0.015 ± 0.011 | -0.011 ± 0.0028 | -0.0095 ± 0.018 | -0.002 ± 0.0085 | -0.018 ± 0.0057 | -0.125 | -0.0195 ± 0.0021 | 0.0095 ± 0.019 | -0.0025 ± 0.018 | 0.005 ± 0.024
CASM3C:PAI-I | 0.004 ± 0.013 | 0.0035 ± 0.0064 | 0.0125 ± 0.0035 | 0.0105 ± 0.0021 | -0.003 ± 0.03 | 0.0015 ± 0.013 | 0.007 ± 0.0057 | 0.0025 ± 0.0021 | 0.009 ± 0.0042 | 0.0105 ± 0.0035 | 0.003 ± 0.0085 | -0.0005 ± 0.012 | 0.01 ± 0.018 | -0.0095 ± 0.0035 | -0.011 ± 0.0042 | -0.01 | -0.0035 ± 0.011 | 0.017 ± 0.016 | 0.013 ± 0.023 | 0.0085 ± 0.026
MyoF:Collagen IV | -0.0195 ± 0.025 | 0.004 ± 0.033 | 0.007 ± 0.061 | -0.014 ± 0.016 | -0.026 ± 0.0042 | -0.027 ± 0.02 | -0.0075 ± 0.03 | 0.008 | 0.003 ± 0.0099 | 0.0115 ± 0.015 | 0.011 ± 0.014 | 0.051 ± 0.033 | 0.214 ± 0.03 | -0.0265 ± 0.0035 | -0.013 ± 0.0071 | 0.156 | 0.0065 ± 0.0021 | 0.002 ± 0.03 | -0.009 ± 0.044 | 0.0145 ± 0.063
